# Data reported in ChEMBL document CHEMBL2150993, “Substituted thiazoles VII. Synthesis and antitumor activity of certain 2-(substituted amino)-4-phenyl-1,3-thiazole analogs” (2012).
# How the values were obtained:
# Type in all cases: functional
# Details in all cases: at 10 µM
# LOX IMVI = test: Growth inhibition of human LOXIMVI cells after 48 hrs by cell counting analysis
# K562 = test: Growth inhibition of human K562 cells after 48 hrs by cell counting analysis
# SK-OV-3 = test: Growth inhibition of human SKOV3 cells after 48 hrs by cell counting analysis
# SW-620 = test: Growth inhibition of human SW620 cells after 48 hrs by cell counting analysis
# SK-MEL-5 = test: Growth inhibition of human SK-MEL-5 cells after 48 hrs by cell counting analysis
# HCC 2998 = test: Growth inhibition of human HCC2998 cells after 48 hrs by cell counting analysis
# MDA-MB-435 = test: Growth inhibition of human MDA-MB-435 cells after 48 hrs by cell counting analysis
# UACC-257 = test: Growth inhibition of human UACC257 cells after 48 hrs by cell counting analysis
# SF-539 = test: Growth inhibition of human SF539 cells after 48 hrs by cell counting analysis
# U-251 = test: Growth inhibition of human U251 cells after 48 hrs by cell counting analysis
# HOP-62 = test: Growth inhibition of human HOP62 cells after 48 hrs by cell counting analysis
# NCI-H226 = test: Growth inhibition of human NCI-H226 cells after 48 hrs by cell counting analysis
# MCF7 = test: Growth inhibition of human MCF7 cells after 48 hrs by cell counting analysis
# MDA-MB-231 = test: Growth inhibition of human MDA-MB-231 cells after 48 hrs by cell counting analysis
# OVCAR-8 = test: Growth inhibition of human OVCAR8 cells after 48 hrs by cell counting analysis
# HCT-116 = test: Growth inhibition of human HCT116 cells after 48 hrs by cell counting analysis
# OVCAR-3 = test: Growth inhibition of human OVCAR3 cells after 48 hrs by cell counting analysis
# SF-268 = test: Growth inhibition of human SF268 cells after 48 hrs by cell counting analysis
# SF-295 = test: Growth inhibition of human SF295 cells after 48 hrs by cell counting analysis
# A549 = test: Growth inhibition of human A549 cells after 48 hrs by cell counting analysis
# UACC-62 = test: Growth inhibition of human UACC62 cells after 48 hrs by cell counting analysis
# SR = test: Growth inhibition of human SR cells after 48 hrs by cell counting analysis
# IGROV-1 = test: Growth inhibition of human IGROV1 cells after 48 hrs by cell counting analysis
# Malme-3M = test: Growth inhibition of human MALME-3M cells after 48 hrs by cell counting analysis
# OVCAR-4 = test: Growth inhibition of human OVCAR4 cells after 48 hrs by cell counting analysis
# TK-10 = test: Growth inhibition of human TK10 cells after 48 hrs by cell counting analysis
# HL-60 = test: Growth inhibition of human HL60 cells after 48 hrs by cell counting analysis
# CAKI-1 = test: Growth inhibition of human Caki1 cells after 48 hrs by cell counting analysis
# BT-549 = test: Growth inhibition of human BT549 cells after 48 hrs by cell counting analysis
# OVCAR-5 = test: Growth inhibition of human OVCAR5 cells after 48 hrs by cell counting analysis
# CCRF-CEM = test: Growth inhibition of human CCRF-CEM cells after 48 hrs by cell counting analysis
# MOLT-4 = test: Growth inhibition of human MOLT4 cells after 48 hrs by cell counting analysis
# SNB-75 = test: Growth inhibition of human SNB75 cells after 48 hrs by cell counting analysis
# UO-31 = test: Growth inhibition of human UO31 cells after 48 hrs by cell counting analysis
# HT-29 = test: Growth inhibition of human HT-29 cells after 48 hrs by cell counting analysis
# M14 = test: Growth inhibition of human M14 cells after 48 hrs by cell counting analysis
# RXF 393 = test: Growth inhibition of human RXF393 cells after 48 hrs by cell counting analysis
# EKVX = test: Growth inhibition of human EKVX cells after 48 hrs by cell counting analysis
# HCT-15 = test: Growth inhibition of human HCT15 cells after 48 hrs by cell counting analysis
# [1] = Growth inhibition of human NCI-ADR-RES cells after 48 hrs by cell counting analysis
# SN12C = test: Growth inhibition of human SN12C cells after 48 hrs by cell counting analysis
# HOP-92 = test: Growth inhibition of human HOP92 cells after 48 hrs by cell counting analysis
# SK-MEL-28 = test: Growth inhibition of human SK-MEL-28 cells after 48 hrs by cell counting analysis
# NCI-H23 = test: Growth inhibition of human NCI-H23 cells after 48 hrs by cell counting analysis
# KM12 = test: Growth inhibition of human KM12 cells after 48 hrs by cell counting analysis
# ACHN = test: Growth inhibition of human ACHN cells after 48 hrs by cell counting analysis
# PC-3 = test: Growth inhibition of human PC3 cells after 48 hrs by cell counting analysis
# RPMI-8226 = test: Growth inhibition of human RPMI8226 cells after 48 hrs by cell counting analysis
# SK-MEL-2 = test: Growth inhibition of human SK-MEL-2 cells after 48 hrs by cell counting analysis
# [2] = Growth inhibition of human NCI-322M cells after 48 hrs by cell counting analysis
# NCI-H522 = test: Growth inhibition of human NCI-H522 cells after 48 hrs by cell counting analysis
# MDA-MB-468 = test: Growth inhibition of human MDA-MB-468 cells after 48 hrs by cell counting analysis
# SNB-19 = test: Growth inhibition of human SNB19 cells after 48 hrs by cell counting analysis
# T47D = test: Growth inhibition of human T47D cells after 48 hrs by cell counting analysis
smiles,measurement,setting,value
O=C(CN1CCN(c2ccccc2)CC1)Nc1nc(-c2ccc(Br)cc2)cs1,growth inhibition (GI),LOX IMVI,11.6%
same,growth inhibition (GI),K562,70.7%
same,growth inhibition (GI),SK-OV-3,<10%
same,growth inhibition (GI),SW-620,<10%
same,growth inhibition (GI),SK-MEL-5,39.4%
same,growth inhibition (GI),HCC 2998,21%
same,growth inhibition (GI),MDA-MB-435,23.9%
same,growth inhibition (GI),UACC-257,13.7%
same,growth inhibition (GI),SF-539,<10%
same,growth inhibition (GI),U-251,<10%
same,growth inhibition (GI),HOP-62,<10%
same,growth inhibition (GI),NCI-H226,20.2%
same,growth inhibition (GI),MCF7,41.2%
same,growth inhibition (GI),MDA-MB-231,22.2%
same,growth inhibition (GI),OVCAR-8,11.9%
same,growth inhibition (GI),HCT-116,33.1%
same,growth inhibition (GI),OVCAR-3,<10%
same,growth inhibition (GI),SF-268,17%
same,growth inhibition (GI),SF-295,20.9%
same,growth inhibition (GI),A549,30.8%
same,growth inhibition (GI),UACC-62,40.1%
same,growth inhibition (GI),SR,<10%
same,growth inhibition (GI),IGROV-1,34.3%
same,growth inhibition (GI),Malme-3M,13.8%
same,growth inhibition (GI),OVCAR-4,<10%
same,growth inhibition (GI),TK-10,28.3%
same,growth inhibition (GI),HL-60,27.1%
same,growth inhibition (GI),CAKI-1,33.5%
same,growth inhibition (GI),BT-549,13.6%
same,growth inhibition (GI),OVCAR-5,<10%
same,growth inhibition (GI),CCRF-CEM,22.2%
same,growth inhibition (GI),MOLT-4,47.6%
same,growth inhibition (GI),SNB-75,17.9%
same,growth inhibition (GI),UO-31,54.6%
same,growth inhibition (GI),HT-29,37.7%
same,growth inhibition (GI),M14,15.7%
same,growth inhibition (GI),RXF 393,13.6%
same,growth inhibition (GI),EKVX,26.7%
same,growth inhibition (GI),HCT-15,26.1%
same,growth inhibition (GI),[1],30.9%
same,growth inhibition (GI),SN12C,23.7%
same,growth inhibition (GI),HOP-92,<10%
same,growth inhibition (GI),SK-MEL-28,<10%
same,growth inhibition (GI),NCI-H23,22.5%
same,growth inhibition (GI),KM12,<10%
same,growth inhibition (GI),ACHN,15.7%
same,growth inhibition (GI),PC-3,28.5%
same,growth inhibition (GI),RPMI-8226,33.6%
same,growth inhibition (GI),SK-MEL-2,14.5%
same,growth inhibition (GI),[2],20.5%
same,growth inhibition (GI),NCI-H522,34.5%
same,growth inhibition (GI),MDA-MB-468,55.6%
same,growth inhibition (GI),SNB-19,23.9%
same,growth inhibition (GI),T47D,41.8%
Cc1ccc(-c2csc(NC(=O)CN3CCN(C)CC3)n2)cc1,growth inhibition (GI),LOX IMVI,<10%
same,growth inhibition (GI),K562,11.4%
same,growth inhibition (GI),SK-OV-3,<10%
same,growth inhibition (GI),SW-620,<10%
same,growth inhibition (GI),SK-MEL-5,<10%
same,growth inhibition (GI),HCC 2998,<10%
same,growth inhibition (GI),MDA-MB-435,<10%
same,growth inhibition (GI),UACC-257,<10%
same,growth inhibition (GI),SF-539,<10%
same,growth inhibition (GI),U-251,<10%
same,growth inhibition (GI),HOP-62,<10%
same,growth inhibition (GI),NCI-H226,<10%
same,growth inhibition (GI),MCF7,12.7%
same,growth inhibition (GI),MDA-MB-231,34.2%
same,growth inhibition (GI),OVCAR-8,<10%
same,growth inhibition (GI),HCT-116,<10%
same,growth inhibition (GI),OVCAR-3,<10%
same,growth inhibition (GI),SF-268,<10%
same,growth inhibition (GI),SF-295,<10%
same,growth inhibition (GI),A549,<10%
same,growth inhibition (GI),UACC-62,<10%
same,growth inhibition (GI),SR,<10%
same,growth inhibition (GI),IGROV-1,<10%
same,growth inhibition (GI),Malme-3M,<10%
same,growth inhibition (GI),OVCAR-4,<10%
same,growth inhibition (GI),TK-10,<10%
same,growth inhibition (GI),HL-60,<10%
same,growth inhibition (GI),CAKI-1,12%
same,growth inhibition (GI),BT-549,12.8%
same,growth inhibition (GI),OVCAR-5,<10%
same,growth inhibition (GI),CCRF-CEM,<10%
same,growth inhibition (GI),MOLT-4,13.4%
same,growth inhibition (GI),SNB-75,42.2%
same,growth inhibition (GI),UO-31,19.9%
same,growth inhibition (GI),HT-29,<10%
same,growth inhibition (GI),M14,<10%
same,growth inhibition (GI),RXF 393,<10%
same,growth inhibition (GI),EKVX,<10%
same,growth inhibition (GI),HCT-15,<10%
same,growth inhibition (GI),[1],<10%
same,growth inhibition (GI),SN12C,10.4%
same,growth inhibition (GI),HOP-92,<10%
same,growth inhibition (GI),SK-MEL-28,<10%
same,growth inhibition (GI),NCI-H23,<10%
same,growth inhibition (GI),KM12,<10%
same,growth inhibition (GI),ACHN,<10%
same,growth inhibition (GI),PC-3,<10%
same,growth inhibition (GI),RPMI-8226,<10%
same,growth inhibition (GI),SK-MEL-2,<10%
same,growth inhibition (GI),[2],<10%
same,growth inhibition (GI),NCI-H522,<10%
same,growth inhibition (GI),MDA-MB-468,<10%
same,growth inhibition (GI),SNB-19,<10%
same,growth inhibition (GI),T47D,<10%
O=C(CCN1CCN(c2ccccc2)CC1)Nc1nc(-c2ccc(Cl)cc2)cs1,growth inhibition (GI),LOX IMVI,<10%
same,growth inhibition (GI),K562,21.6%
same,growth inhibition (GI),SK-OV-3,<10%
same,growth inhibition (GI),SW-620,<10%
same,growth inhibition (GI),SK-MEL-5,10.1%
same,growth inhibition (GI),HCC 2998,<10%
same,growth inhibition (GI),MDA-MB-435,<10%
same,growth inhibition (GI),UACC-257,<10%
same,growth inhibition (GI),SF-539,<10%
same,growth inhibition (GI),U-251,<10%
same,growth inhibition (GI),HOP-62,<10%
same,growth inhibition (GI),NCI-H226,14.1%
same,growth inhibition (GI),MCF7,10.9%
same,growth inhibition (GI),MDA-MB-231,<10%
same,growth inhibition (GI),OVCAR-8,<10%
same,growth inhibition (GI),HCT-116,19.4%
same,growth inhibition (GI),OVCAR-3,<10%
same,growth inhibition (GI),SF-268,<10%
same,growth inhibition (GI),SF-295,24.2%
same,growth inhibition (GI),A549,12%
same,growth inhibition (GI),UACC-62,20.5%
same,growth inhibition (GI),SR,<10%
same,growth inhibition (GI),IGROV-1,<10%
same,growth inhibition (GI),Malme-3M,<10%
same,growth inhibition (GI),OVCAR-4,<10%
same,growth inhibition (GI),TK-10,<10%
same,growth inhibition (GI),HL-60,19.6%
same,growth inhibition (GI),CAKI-1,<10%
same,growth inhibition (GI),BT-549,<10%
same,growth inhibition (GI),OVCAR-5,<10%
same,growth inhibition (GI),CCRF-CEM,16.3%
same,growth inhibition (GI),MOLT-4,36.3%
same,growth inhibition (GI),SNB-75,14.9%
same,growth inhibition (GI),UO-31,38.6%
same,growth inhibition (GI),HT-29,18.6%
same,growth inhibition (GI),M14,<10%
same,growth inhibition (GI),RXF 393,<10%
same,growth inhibition (GI),EKVX,<10%
same,growth inhibition (GI),HCT-15,<10%
same,growth inhibition (GI),[1],<10%
same,growth inhibition (GI),SN12C,11.9%
same,growth inhibition (GI),HOP-92,23.7%
same,growth inhibition (GI),SK-MEL-28,<10%
same,growth inhibition (GI),NCI-H23,13.7%
same,growth inhibition (GI),KM12,<10%
same,growth inhibition (GI),ACHN,<10%
same,growth inhibition (GI),PC-3,12%
same,growth inhibition (GI),RPMI-8226,25.4%
same,growth inhibition (GI),SK-MEL-2,<10%
same,growth inhibition (GI),[2],27.8%
same,growth inhibition (GI),NCI-H522,18.7%
same,growth inhibition (GI),MDA-MB-468,<10%
same,growth inhibition (GI),SNB-19,<10%
same,growth inhibition (GI),T47D,<10%
